Assay results: patent US11534434B2 (Karuna Therapeutics, Inc., priority 2019, dated 2022)

How the values were obtained:
human M5 mAChR = target: T1, human M5 mAChR (Homo sapiens, UniProt P08912); experiment: Whole-cell functional agonist activity, FLIPR Ca2+ release, CHOK1-based human M5 mAChR stable cell line; settings: for EC50: agonist, FLIPR Ca2+ release, CHOK1 human M5 cells; for Emax: top of curve, % activity vs MAX control ligand, FLIPR Ca2+
T1 construct: expressed in transfected cells
T1 sequence (P08912 1-532): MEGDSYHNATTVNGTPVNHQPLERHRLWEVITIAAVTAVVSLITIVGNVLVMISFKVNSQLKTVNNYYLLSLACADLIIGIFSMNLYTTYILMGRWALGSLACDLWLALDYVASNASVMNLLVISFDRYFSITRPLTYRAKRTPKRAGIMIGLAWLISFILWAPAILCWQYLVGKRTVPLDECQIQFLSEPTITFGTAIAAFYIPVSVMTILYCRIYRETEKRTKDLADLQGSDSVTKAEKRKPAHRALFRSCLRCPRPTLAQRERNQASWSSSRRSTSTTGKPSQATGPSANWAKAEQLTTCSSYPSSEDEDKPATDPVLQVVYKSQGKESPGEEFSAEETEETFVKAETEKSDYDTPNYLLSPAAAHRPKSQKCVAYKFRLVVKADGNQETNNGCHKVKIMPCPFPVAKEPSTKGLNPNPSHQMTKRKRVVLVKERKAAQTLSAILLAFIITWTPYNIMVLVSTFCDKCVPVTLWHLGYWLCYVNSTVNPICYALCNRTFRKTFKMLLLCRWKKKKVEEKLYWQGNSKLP
Text: (§1) Whole-cell functional agonist activity in cells expressing recombinant human muscarinic receptor subtypes.
(§2) ThermoFisher's FLIPR™ (Fluorescence Imaging Plate Reader) was used to quantify Ca^2+ release, a functional effect associated with Gaq-coupled M1 and M5 mAChRs. CisBio's phospho-ERK (pERK) Thr202/Tyr204 was used to evaluate Gai/o-coupled M2 and M4 mAChRs responses.
(§3) One day before the assay, M1, M3, and M5 cells were thawed out and plated at 10,000 cells/well into black-walled, clear-bottom, Poly-D-lysine coated 384-well microplates and incubated at 37° C. and 5% CO2 in MEME+10% FBS+1× penicillin/streptomycin/glutamine, for the M1 and M3 cell lines and F-12+10% FBS+1× penicillin/streptomycin/glutamine for the M5 cell line. […] The M1 and M5 responses were analyzed using the CBIS data analysis suite (ChemInnovation, CA).
(§4) Percentage activity was calculated using the following formula: % Activity=100%×(mean RFU of test sample mean RFU of vehicle control)/(mean MAX RFU control ligand mean RFU of vehicle control) where RFU is relative fluorescence unit. The M2 and the M4 cells were thawed out one day before the assay and plated at 2,000 and 1,000 cells per well, respectively, in […] of DMEM/F12+10% FBS in ProxiPlate 384-well white-walled, white-bottom tissue culture-treated plates and incubated at 37° C. and 5% CO2 overnight. Before the assay, cells were serum-starved at 37° C. in 5% CO2 for 4 hours by replacing culture media with […] of F12 media with 8 mM HEPES. The pERK assay was run according to assay kit instructions with minor volume modifications outlined below.

human M2 mAChR = target: T2, human M2 mAChR (Homo sapiens, UniProt P08172); experiment: Whole-cell functional agonist activity, phospho-ERK (pERK), CHOK1-based human M2 mAChR stable cell line; settings: for EC50: agonist, CHOK1 human M2 cells; for M2 Top (%): top of curve, % of min (DMSO) and max (10 mM Acetylcholine) responses
T2 construct: expressed in transfected cells
T2 sequence (P08172 1-466): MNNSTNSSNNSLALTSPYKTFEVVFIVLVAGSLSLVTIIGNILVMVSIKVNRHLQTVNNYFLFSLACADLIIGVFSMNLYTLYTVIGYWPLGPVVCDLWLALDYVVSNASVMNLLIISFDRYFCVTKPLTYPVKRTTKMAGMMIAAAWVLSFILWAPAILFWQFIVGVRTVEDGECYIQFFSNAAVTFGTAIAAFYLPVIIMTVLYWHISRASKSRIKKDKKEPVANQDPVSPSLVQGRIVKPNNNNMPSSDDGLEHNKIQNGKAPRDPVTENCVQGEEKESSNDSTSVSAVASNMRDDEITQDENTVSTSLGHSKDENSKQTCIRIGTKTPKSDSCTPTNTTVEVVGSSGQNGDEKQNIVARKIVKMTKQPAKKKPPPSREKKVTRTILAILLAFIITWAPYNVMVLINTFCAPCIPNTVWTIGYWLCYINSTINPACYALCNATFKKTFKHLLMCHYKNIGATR
Description: as §1, §2, §4
Compound addition was carried out by adding 3× compound solution in […] of media with 0.3% DMSO (made from a 10 mM compound stock solution in 100% DMSO) for 5 minutes before the reaction was terminated by adding […] lysis and blocking solution. Cells were left in the lysis solution for 30 minutes before […] of antibody (Eu and d2) solution was added for an additional 2-hour incubation while protected from light. The plates were then read on laser Pherastar using the TR-FRET protocol.

[1] = Human liver microsome stability; assay type: in vitro ADME; settings: human liver microsomes; for microsomal CLint at 100 nM: apparent intrinsic clearance, no unit in table (μL/min/pmol, μL/min/mg or μL/min/Mcell); for Parent at 60 min (%) / half-life at 100 nM: 100 nM, 37° C., tartrate salt
Description: Human Liver Microsome Stability
Test compounds were dissolved in DMSO to prepare 10 mM stock solutions, diluted to a final test concentration of 100 nM, and incubated at 37° C. with human liver microsomes. Metabolic stability, expressed as a percent of the parent compound remaining, was assessed at 0, 15, 30, 45, and 60 minutes and calculated by comparing the compound's peak area at the time point relative to that at time-0. The half-life (T1/2) was estimated from the slope of the initial linear range of the logarithmic curve of compound remaining (%) vs. time, assuming first-order kinetics. The apparent intrinsic clearance (CLint, in μL/min/pmol, μL/min/mg or μL/min/Mcell) was calculated according to the following formula: CLint=0.693 T1/2*(mg protein/μL or million cells/μL or pmol CYP isoyme/μL).

human M1 mAChR = target: T3, human M1 mAChR (Homo sapiens, UniProt P11229); experiment: Whole-cell functional agonist activity, FLIPR Ca2+ release, U2OS-based human M1 mAChR stable cell line; settings: for EC50: agonist, FLIPR Ca2+ release, U2OS human M1 cells; for Emax: top of curve, % activity vs MAX control ligand, FLIPR Ca2+
T3 construct: expressed in transfected cells
T3 sequence (P11229 1-460): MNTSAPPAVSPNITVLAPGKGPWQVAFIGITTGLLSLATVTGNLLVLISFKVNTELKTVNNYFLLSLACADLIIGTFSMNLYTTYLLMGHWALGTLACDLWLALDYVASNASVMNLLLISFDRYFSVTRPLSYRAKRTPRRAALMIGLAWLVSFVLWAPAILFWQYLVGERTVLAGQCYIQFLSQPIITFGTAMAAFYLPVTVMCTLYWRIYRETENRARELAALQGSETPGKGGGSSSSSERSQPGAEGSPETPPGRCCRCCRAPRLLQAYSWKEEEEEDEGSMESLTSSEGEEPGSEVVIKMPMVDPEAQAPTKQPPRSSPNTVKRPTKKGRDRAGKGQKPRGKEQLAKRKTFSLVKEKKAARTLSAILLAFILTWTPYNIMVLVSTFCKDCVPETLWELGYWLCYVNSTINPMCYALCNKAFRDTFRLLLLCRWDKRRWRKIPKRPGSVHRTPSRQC
Text: as §1, §2, §3, §4

| Compound | EC50 (human M5 mAChR) [nM] | Emax (human M5 mAChR) [%] | EC50 (human M2 mAChR) [nM] | M2 Top (%) (human M2 mAChR) | microsomal CLint at 100 nM [1] [µL/min/mg] | Parent at 60 min (%) [1] [%] | half-life at 100 nM [1] [min] | EC50 (human M1 mAChR) [nM] | Emax (human M1 mAChR) [%] |
| --- | --- | --- | --- | --- | --- | --- | --- | --- | --- |
| CN1CCC=C(c2nsnc2OCCCCCC(F)F)C1 [Example 6, 3-((6,6-difluorohexyl)oxy)-4-(1-methyl-1,2,5,6-tetrahydropyridin-3-yl)-1,2,5-thiadiazole] | 14.7 | 95 | > 34 | 2 | 413 | 8 | 17 | 2.5 | 94 |
| CN1CCC=C(c2nsnc2OCCCCC(C)(F)F)C1 [Example 8, 3-((5,5-Difluorohexyl)oxy)-4-(1-methyl-1,2,5,6-tetrahydropyridin-3-yl)-1,2,5-thiadiazole] | 27.2 | 85 | > 34 | 0 | 711 | 2 | 10 | 5.7 | 87 |
| CN1CCC=C(c2nsnc2OCCCCCC(F)(F)F)C1 [Example 1, 3-(1-Methyl-1,2,5,6-tetrahydropyridin-3-yl)-4-((6,6,6-trifluorohexyl)oxy)-1,2,5-thiadiazole] | 22.4 | 85 | > 34 | 1 | 447 | 7 | 16 | 3.7 | 90 |
| CN1CCC=C(c2nsnc2OCCCCCCF)C1 [Example 7, 3-((6-Fluorohexyl)oxy)-4-(1-methyl-1,2,5,6-tetrahydropyridin-3-yl)-1,2,5-thiadiazole] | 13.2 | 90 | > 34 | 3 | 553 | 3 | 13 | 3.1 | 93 |

Continued, values first:

| EC50 (human M5 mAChR) [nM] | Emax (human M5 mAChR) [%] | EC50 (human M2 mAChR) [nM] | M2 Top (%) (human M2 mAChR) | microsomal CLint at 100 nM [1] [µL/min/mg] | Parent at 60 min (%) [1] [%] | half-life at 100 nM [1] [min] | EC50 (human M1 mAChR) [nM] | Emax (human M1 mAChR) [%] | Compound |
| --- | --- | --- | --- | --- | --- | --- | --- | --- | --- |
| 140 | 40 | > 34 | 1 | 576 | 3 | 12 | 28.4 | 46 | CCC(F)(F)CCCOc1nsnc1C1=CCCN(C)C1 [Example 9, 3-((4,4-Difluorohexyl)oxy)-4-(1-methyl-1,2,5,6-tetrahydropyridin-3-yl)-1,2,5-thiadiazole] |
| 2290 | 45 | > 34 | 0 | 2000 | 7 | 3 | 29 | 32 | CCCCC(F)(F)COc1nsnc1C1=CCCN(C)C1 [Example 11, 3-((2,2-Difluorohexyl)oxy)-4-(1-methyl-1,2,5,6-tetrahydropyridin-3-yl)-1,2,5-thiadiazole] |
